Data set [1] is classed as in vivo, rats. Particulars: rat, oral nimodipine 12 mg/kg.
Data set [2] is classed as in vivo, rats. Particulars: rat, i.v. nimodipine 3 mg/kg, with pravastatin 0.3 and 1 mg/kg.
Data set [3] concerns the target human CYP3A4 (Homo sapiens, UniProt P08684). In words: biochemical.
Data set [4] concerns the target P-gp (Homo sapiens, UniProt P08183). In words: Rhodamine-123 retention assay in P-gp overexpressing MCF-7/ADR cells. Format: cell-based. Particulars: 10 to 100 μM, 90 min, 20 μM rhodamine-123, MCF-7/ADR cells.

Experimental findings from paper PMC3480797 (Indian Journal of Pharmacology, 2012) are described below.

SMILES strings stand for the structures.

What is called IC50 is the concentration needed to halve the response being measured. Read a low IC50 as higher potency.

P-gp, sequence (P08183 whole entry): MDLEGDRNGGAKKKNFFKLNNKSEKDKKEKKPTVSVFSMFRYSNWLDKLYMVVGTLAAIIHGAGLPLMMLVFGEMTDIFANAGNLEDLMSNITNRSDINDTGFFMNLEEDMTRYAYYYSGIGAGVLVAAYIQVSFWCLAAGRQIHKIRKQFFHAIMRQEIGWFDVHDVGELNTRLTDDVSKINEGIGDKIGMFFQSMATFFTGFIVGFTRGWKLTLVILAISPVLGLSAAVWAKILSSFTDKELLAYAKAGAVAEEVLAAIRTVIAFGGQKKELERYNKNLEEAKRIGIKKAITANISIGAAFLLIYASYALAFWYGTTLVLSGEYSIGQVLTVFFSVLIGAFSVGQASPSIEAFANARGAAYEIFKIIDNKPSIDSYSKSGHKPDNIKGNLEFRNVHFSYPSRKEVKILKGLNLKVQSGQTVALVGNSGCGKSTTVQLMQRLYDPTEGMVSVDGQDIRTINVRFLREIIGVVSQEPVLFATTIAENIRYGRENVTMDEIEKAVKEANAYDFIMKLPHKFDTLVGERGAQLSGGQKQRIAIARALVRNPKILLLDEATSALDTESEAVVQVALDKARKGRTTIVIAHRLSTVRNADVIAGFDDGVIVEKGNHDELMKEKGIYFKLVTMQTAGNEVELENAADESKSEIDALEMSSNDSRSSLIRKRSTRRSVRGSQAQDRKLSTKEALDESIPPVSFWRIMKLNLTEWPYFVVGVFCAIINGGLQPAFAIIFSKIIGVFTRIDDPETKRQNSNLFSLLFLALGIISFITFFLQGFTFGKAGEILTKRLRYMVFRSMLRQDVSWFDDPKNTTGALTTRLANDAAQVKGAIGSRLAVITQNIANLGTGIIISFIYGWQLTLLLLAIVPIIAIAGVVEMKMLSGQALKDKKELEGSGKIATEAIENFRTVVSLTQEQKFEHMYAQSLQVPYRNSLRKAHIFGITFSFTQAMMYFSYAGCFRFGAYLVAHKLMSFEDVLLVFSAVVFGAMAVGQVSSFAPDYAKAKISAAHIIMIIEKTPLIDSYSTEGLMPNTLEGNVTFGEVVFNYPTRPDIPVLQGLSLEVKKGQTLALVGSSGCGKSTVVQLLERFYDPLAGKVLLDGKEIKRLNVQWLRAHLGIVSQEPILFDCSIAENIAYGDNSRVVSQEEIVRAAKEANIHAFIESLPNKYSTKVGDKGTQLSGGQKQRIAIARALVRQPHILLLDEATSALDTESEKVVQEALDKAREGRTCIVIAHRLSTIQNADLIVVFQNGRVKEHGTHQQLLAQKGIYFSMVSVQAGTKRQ
human CYP3A4, sequence (P08684 whole entry): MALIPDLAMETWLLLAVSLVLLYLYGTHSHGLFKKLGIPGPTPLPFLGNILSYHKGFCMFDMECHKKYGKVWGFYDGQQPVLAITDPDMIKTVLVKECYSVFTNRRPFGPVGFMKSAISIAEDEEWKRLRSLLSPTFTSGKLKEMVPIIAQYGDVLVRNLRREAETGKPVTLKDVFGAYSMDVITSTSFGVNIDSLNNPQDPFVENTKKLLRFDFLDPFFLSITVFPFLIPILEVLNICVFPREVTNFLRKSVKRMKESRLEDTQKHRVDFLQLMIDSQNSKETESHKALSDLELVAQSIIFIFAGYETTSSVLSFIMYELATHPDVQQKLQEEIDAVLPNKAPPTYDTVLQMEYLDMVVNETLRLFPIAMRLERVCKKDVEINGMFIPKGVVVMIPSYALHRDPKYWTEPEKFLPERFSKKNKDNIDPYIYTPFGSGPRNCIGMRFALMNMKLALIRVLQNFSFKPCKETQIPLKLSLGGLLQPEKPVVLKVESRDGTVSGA

With `COCCOC(=O)C1=C(C)NC(C)=C(C(=O)OC(C)C)C1c1cccc([N+](=O)[O-])c1` (centres unmarked) [nimodipine, Nimodipine], the “increase of AUC0-∞ compared with the control group” value in data set [1] (with 1 mg/kg pravastatin, P < 0.05) is 30.9%. In addition, in data set [1] (with pravastatin (1 mg/kg)), the “increase of AB compared with the oral control group” value is reported as 31.1%. Moreover, in data set [2], the “effect of concurrent pravastatin on the pharmacokinetics of i.v. nimodipine” value is “not affected”.
In data set [3], `CC[C@H](C)C(=O)O[C@H]1C[C@H](O)C=C2C=C[C@H](C)[C@H](CC[C@@H](O)C[C@@H](O)CC(=O)O)[C@H]21` [pravastatin, Pravastatin] displayed a half-maximal inhibitory concentration (IC50) of 14 µM. Further, the “effect on P-gp activity (cellular uptake of rhodamine-123)” value in data set [4] was “did not significantly inhibit P-gp activity”.
